Columns and labels:
Type in all cases: biochemical
Conditions in all cases: continuous assay 60 min, reaction initiated by adding enzyme
MCH-5 = MCH-5 (Homo sapiens, UniProt Q14790); assay: Dissociation constant Ki and irreversible rate constant k3 for irreversible inhibitors, Mch5
From the text: (§1) For the irreversible inhibition of a ICE/ced-3 Family Protease enzyme with a competitive irreversible inhibitor; using the model represented by the following formulas: […]
(§2) The product formation at time t may be expressed as:
(§3) [formula] where E, I, EI and E-I denote the active enzyme, inhibitor, non-covalent enzyme-inhibitor complex and covalent enzyme-inhibitor adduct, respectively. The Ki value is the overall dissociation constant of the reversible binding steps, and k3 is the irreversible rate constant. The [S] and Ks values are the substate concentration and dissociation constant of the substrate bound to the enzyme, respectively. [E]^T is the total enzyme concentration.
(§4) The above equations were used to determine the Ki and k3 values of a given inhibitor bound to a ICE/ced-3 family protease. Thus, a continuous assay was run for sixty minutes at various concentrations of the inhibitor and the substrate. The assay was formulated essentially the same as described above for generating the data in Table 1, except that the reaction was initiated by adding the enzyme to the substrate-inhibitor mixture. The Ki and k3 values were obtained by simulating the product AMC formation as a function of time according to Equation 1.
(§5) The reference compound for this assay was Cbz-ValAlaAsp-CH2F and the values are denoted in Table 2 as “Reference”. The Ki values in Table 2 are in micromolar (μM). The k3/Ki values are in moles^−1 seconds^−1 (M^−1s^−1).

CPP32 = target: T1, CPP32 (Homo sapiens, UniProt P42574); assay: Dissociation constant Ki and irreversible rate constant k3 for irreversible inhibitors, CPP32
T1 sequence (P42574 29-175 limits assumed): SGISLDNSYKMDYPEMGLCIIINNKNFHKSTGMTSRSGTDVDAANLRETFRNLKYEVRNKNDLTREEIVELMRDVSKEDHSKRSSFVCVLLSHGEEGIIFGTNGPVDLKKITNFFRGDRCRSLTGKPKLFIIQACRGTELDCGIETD
T1 sequence (P42574 176-277 limits assumed): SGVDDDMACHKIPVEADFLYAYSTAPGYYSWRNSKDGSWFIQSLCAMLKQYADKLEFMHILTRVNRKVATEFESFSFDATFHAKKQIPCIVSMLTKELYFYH
From the text: as §1, §2, §3, §4, §5

mICE = target: T2, mICE (Mus musculus, UniProt P29452); assay: Dissociation constant Ki and irreversible rate constant k3 for irreversible inhibitors, ICE
T2 sequence (P29452 123-296 limits assumed): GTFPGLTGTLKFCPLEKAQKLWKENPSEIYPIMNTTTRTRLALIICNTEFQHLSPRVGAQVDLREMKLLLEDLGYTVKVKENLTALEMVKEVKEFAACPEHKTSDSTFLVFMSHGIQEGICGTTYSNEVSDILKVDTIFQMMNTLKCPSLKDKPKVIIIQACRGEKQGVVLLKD
T2 sequence (P29452 315-402 limits assumed): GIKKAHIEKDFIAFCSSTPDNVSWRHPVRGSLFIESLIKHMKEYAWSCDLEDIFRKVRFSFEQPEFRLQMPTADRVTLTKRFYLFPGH
From the text: as §1, §2, §3, §4, §5

MCH-2 = target: T3, MCH-2 (Homo sapiens, UniProt P55212); assay: Dissociation constant Ki and irreversible rate constant k3 for irreversible inhibitors, Mch2
T3 sequence (P55212 24-179 limits assumed): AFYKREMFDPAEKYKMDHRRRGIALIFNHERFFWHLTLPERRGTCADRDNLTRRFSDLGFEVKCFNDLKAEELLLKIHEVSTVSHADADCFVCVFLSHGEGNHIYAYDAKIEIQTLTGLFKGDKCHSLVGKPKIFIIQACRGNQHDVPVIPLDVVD
T3 sequence (P55212 194-293 limits assumed): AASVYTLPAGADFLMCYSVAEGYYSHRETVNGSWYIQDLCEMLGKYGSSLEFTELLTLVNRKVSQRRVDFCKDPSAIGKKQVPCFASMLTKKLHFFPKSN
From the text: as §1, §2, §3, §4, §5

Chain of MCH-5 (Q14790 217-374 limits assumed, species assumed): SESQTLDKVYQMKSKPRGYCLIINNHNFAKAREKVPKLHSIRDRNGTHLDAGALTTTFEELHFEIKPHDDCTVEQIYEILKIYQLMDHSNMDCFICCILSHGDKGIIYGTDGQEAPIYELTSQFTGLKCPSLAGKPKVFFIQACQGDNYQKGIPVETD
Chain of MCH-5 (Q14790 385-479 limits assumed, species assumed): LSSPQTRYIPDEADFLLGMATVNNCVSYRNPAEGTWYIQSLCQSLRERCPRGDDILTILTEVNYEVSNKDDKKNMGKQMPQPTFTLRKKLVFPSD

Row | SMILES | Ki (MCH-5) [nM] | MCH-5 k3/Ki (MCH-5) | CPP32 k3/Ki (CPP32) | Ki (CPP32) [nM] | Ki (mICE) [nM] | mICE k3/Ki (mICE) | Ki (MCH-2) [nM] | MCH-2 k3/Ki (MCH-2)
1 | CC(C)[C@H](NC(=O)COc1cccc2ccccc12)C(=O)N[C@@H](CC(=O)O)C(=O)COc1ccc(F)cc1 [Example 67] | 255 | 700 M⁻¹ s⁻¹ | 8,560 M^−1s^−1 | 33 | 218 | 9,120 M^−1s^−1 | 203 | 0 M⁻¹ s⁻¹
2 | CC(C)[C@H](NC(=O)COc1cccc2ccccc12)C(=O)N[C@@H](CC(=O)O)C(=O)COc1cc(C(F)(F)F)nn1-c1ccccc1 [Example 143] | 37 | 14,500 M^−1s^−1 | 121,000 M^−1s^−1 | 50 | 205 | 28,300 M^−1s^−1 | 28 | 8,500 M^−1s^−1
3 | CC(C)[C@H](NC(=O)COc1cccc2ccccc12)C(=O)N[C@@H](CC(=O)O)C(=O)COc1ccnc(C(F)(F)F)n1 [Example 121] | 276 | 3,200 M^−1s^−1 | 114,000 M^−1s^−1 | 47 | 242 | 24,800 M^−1s^−1 | 120 | 5,150 M^−1s^−1
4 | CC(C)[C@H](NC(=O)CCOc1cccc2ccccc12)C(=O)NC(CC(=O)O)C(=O)CF (mixture of isomers) [Example 55] | 56 | 20,400 M^−1s^−1 | 41,300 M^−1s^−1 | 186 | 246 | 33,200 M^−1s^−1 | 39 | 59,400 M^−1s^−1
5 | CC(C)[C@H](NC(=O)COc1cccc2ccccc12)C(=O)N[C@@H](CC(=O)O)C(=O)COc1c(F)cc(F)cc1F [Example 78] | 202 | 9,080 M^−1s^−1 | 114,000 M^−1s^−1 | 38 | 137 | 20,700 M^−1s^−1 | 81 | 5,140 M^−1s^−1
6 | CC(C)[C@H](NC(=O)CCOc1ccccc1)C(=O)N[C@@H](CC(=O)O)C(=O)COc1c(F)c(F)cc(F)c1F [Example 160, (3S)-3-[N-(3′-(Phenoxy)Propionyl)Valinyl]Amino-5-(2,3,5,6-Tetrafluorophenoxy)-4-Oxopentanoic Acid] | 351 | 3,680 M^−1s^−1 | 33,000 M^−1s^−1 | 132 | 1180 | 11,400 M^−1s^−1 | 93 | 36,600 M^−1s^−1
7 | CC(C)[C@H](NC(=O)COc1cccc2ccccc12)C(=O)N[C@@H](CC(=O)O)C(=O)COc1ccc(F)c(F)c1F [Example 74] | 1080 | 770 M⁻¹ s⁻¹ | 35,800 M^−1s^−1 | 135 | 280 | 11,900 M^−1s^−1 | 1250 | 250 M⁻¹ s⁻¹
8 | CC(C)[C@H](NC(=O)COc1cccc2ccccc12)C(=O)NC(CC(=O)O)C(=O)CF (mixture of isomers) [Example 53, (3RS)-3-[N-((1-Naphthyloxy)Acetyl)Valinyl]Amino-5-Fluoro-4-Oxopentanoic Acid] | 40 | 71,700 M^−1s^−1 | 207,000 M^−1s^−1 | 79 | 53 | 129,000 M^−1s^−1 | 38 | 36,800 M^−1s^−1
9 | CC(C)[C@H](NC(=O)COc1cccc2ccccc12)C(=O)N[C@@H](CC(=O)O)C(=O)COP(C)(C)=O [Example 105] | 160 | 3,700 M^−1s^−1 | 44,900 M^−1s^−1 | 341 | 413 | 18,000 M^−1s^−1 | 233 | 6,090 M^−1s^−1
10 | CC(C)[C@H](NC(=O)COc1ccccc1-c1ccccc1)C(=O)N[C@@H](CC(=O)O)C(=O)COC(=O)c1c(Cl)cccc1Cl [Example 150] | 127 | 9,340 M^−1s^−1 | 698,000 M^−1s^−1 | 16 | 263 | 43,700 M^−1s^−1 | 9 | 400,000 M^−1s^−1
11 | CC(C)[C@H](NC(=O)COc1cccc2ccccc12)C(=O)N[C@@H](CC(=O)O)C(=O)COc1c(F)ccc(F)c1F [Example 76] | 81 | 17,000 M^−1s^−1 | 188,000 M^−1s^−1 | 63 | 90 | 47,100 M^−1s^−1 | 58 | 81,700 M^−1s^−1
12 | CC(C)[C@H](NC(=O)COc1ccccc1-c1ccccc1)C(=O)N[C@@H](CC(=O)O)C(=O)COc1c(F)cc(F)cc1F [Example 151] | 270 | 5,900 M^−1s^−1 | 257,000 M^−1s^−1 | 32 | 349 | 29,600 M^−1s^−1 | 23 | 88,100 M^−1s^−1
13 | CC(C)C[C@H](NC(=O)COc1ccccc1-c1ccccc1)C(=O)N[C@@H](CC(=O)O)C(=O)COc1c(F)cc(F)cc1F [Example 163] | 252 | 7,960 M^−1s^−1 | 308,000 M^−1s^−1 | 23 | 415 | 37,800 M^−1s^−1 | 12 | 110,000 M^−1s^−1
14 | CC(C)C[C@H](NC(=O)COc1c(C(=O)O)ccc2ccccc12)C(=O)N[C@@H](CC(=O)O)C(=O)COP(=O)(c1ccccc1)c1ccccc1 [Example 166] | 28 | 80,000 M^−1s^−1 | 317,000 M^−1s^−1 | 28 | 42 | 149,000 M^−1s^−1 | 11 | 146,000 M^−1s^−1
15 | CC(C)C[C@H](NC(=O)COc1ccccc1-c1ccccc1)C(=O)N[C@@H](CC(=O)O)C(=O)COP(=O)(c1ccccc1)c1ccccc1 [Example 161] | 105 | 15,200 M^−1s^−1 | 319,000 M^−1s^−1 | 19 | 98 | 86,400 M^−1s^−1 | 30 | 149,000 M^−1s^−1
16 | CC(C)[C@H](NC(=O)COc1cccc2ccccc12)C(=O)N[C@@H](CC(=O)O)C(=O)COc1ccccc1F [Example 65] | 354 | 230 M⁻¹ s⁻¹ | 26,800 M^−1s^−1 | 102 | 305 | 6,020 M^−1s^−1 | 336 | 0 M⁻¹ s⁻¹
17 | O=C(O)CC(NC(=O)[C@@H]1CCCCN1C(=O)COc1cccc2ccccc12)C(=O)CF (some centres unmarked) [Example 59] | 90 | 17,600 M^−1s^−1 | 14,400 M^−1s^−1 | 942 | 184 | 46,300 M^−1s^−1 | 71 | 10,100 M^−1s^−1
18 | COC(=O)c1cc(OCC(=O)[C@H](CC(=O)O)NC(=O)[C@@H](NC(=O)COc2cccc3ccccc23)C(C)C)no1 [Example 144] | 155 | 6,340 M^−1s^−1 | 144,000 M^−1s^−1 | 54 | 126 | 42,500 M^−1s^−1 | 70 | 5,800 M^−1s^−1
19 | CC(C)[C@H](NC(=O)COc1ccc2ccccc2c1)C(=O)N[C@@H](CC(=O)O)C(=O)COc1c(F)cc(F)cc1F [Example 156] | 293 | 3,990 M^−1s^−1 | 49,700 M^−1s^−1 | 148 | 438 | 20,200 M^−1s^−1 | 52 | 14,900 M^−1s^−1

From patent publication US7157430B2, “(Substituted)acyl dipeptidyl inhibitors of the ICE/CED-3 family of cysteine proteases” (Idun Pharmaceuticals, Inc., priority 1998, dated 2007)
